pKi: −log10 of the molar value.
Legend:
Carbonic anhydrase 2 = Carbonic anhydrase 2 (Homo sapiens, UniProt P00918)
Description: Inhibitory constant against human Carbonic anhydrase II

Carbonic anhydrase 1 = Carbonic anhydrase 1 (Homo sapiens, UniProt P00915)
Description: Inhibitory constant against human Carbonic anhydrase I

[1] = target: Carbonic anhydrases; II & IX (Homo sapiens, UniProt P00918+Q16790)
Description: Ratio against Carbonic anhydrase II to Carbonic anhydrase IX

Carbonic anhydrase 9 = Carbonic anhydrase 9 (Homo sapiens, UniProt Q16790)
Description: Inhibitory constant against human Carbonic anhydrase IX

Chain of Carbonic anhydrase 1 (P00915 whole entry): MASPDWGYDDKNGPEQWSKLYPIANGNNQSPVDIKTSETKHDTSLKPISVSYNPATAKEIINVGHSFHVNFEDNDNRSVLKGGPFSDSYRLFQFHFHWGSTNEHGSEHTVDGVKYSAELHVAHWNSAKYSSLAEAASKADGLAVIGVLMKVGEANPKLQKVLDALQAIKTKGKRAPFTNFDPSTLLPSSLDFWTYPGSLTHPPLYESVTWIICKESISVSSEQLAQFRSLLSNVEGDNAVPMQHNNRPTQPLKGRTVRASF

SMILES | pKi (Carbonic anhydrase 2) | pKi (Carbonic anhydrase 1) | Ki [1] [Ratio] | pKi (Carbonic anhydrase 9)
CN(C)CC/N=C(\S)Nc1ccc(S(=O)(=O)NCc2ccc(S(N)(=O)=O)cc2)cc1 | 7.92 | 6.68 | 2.22 | 8.27
CN(C)CC/N=C(\S)Nc1ccc(S(=O)(=O)NCCc2ccc(S(N)(=O)=O)cc2)cc1 | 8.00 | 6.51 | 1.65 | 8.21
NS(=O)(=O)c1ccc(CC/N=C(\S)Nc2ccc(S(=O)(=O)NCc3ccc(S(N)(=O)=O)cc3)cc2)cc1 | 7.34 | 8.43 | 10 | 8.34
NS(=O)(=O)c1ccc(NS(=O)(=O)c2ccc(N/C(S)=N/CCN3CCOCC3)cc2)cc1 | 6.74 | 8.02 | 32.14 | 8.25
CN1CCN(CC/N=C(\S)Nc2ccc(S(=O)(=O)Nc3ccc(S(N)(=O)=O)cc3)cc2)CC1 | 8.14 | 6.76 | 1.5 | 8.32
NS(=O)(=O)c1ccc(CNS(=O)(=O)c2ccc(NC(=S)NCCc3ccccc3)cc2)cc1 | 6.19 | 8.07 | – | –
CN(C)CC/N=C(\S)Nc1ccc(S(=O)(=O)Nc2ccc(S(N)(=O)=O)cc2)cc1 | 8.09 | 6.98 | 1.2 | 8.17

Results, then the molecule that gave them:

pKi (Carbonic anhydrase 2) | pKi (Carbonic anhydrase 1) | Ki [1] [Ratio] | pKi (Carbonic anhydrase 9) | SMILES
6.56 | 6.57 | – | – | NS(=O)(=O)c1ccc(CNS(=O)(=O)c2ccc(NC(=S)NN3CCOCC3)cc2)cc1
6.66 | 8.51 | 45.83 | 8.32 | NS(=O)(=O)c1ccc(CNS(=O)(=O)c2ccc(N/C(S)=N/CCN3CCOCC3)cc2)cc1
6.54 | 6.63 | – | – | NS(=O)(=O)c1ccc(NS(=O)(=O)c2ccc(N/C(S)=N/N3CCOCC3)cc2)cc1
6.54 | 6.45 | – | – | NS(=O)(=O)c1ccc(CNS(=O)(=O)c2ccc(NC(=S)NCc3ccccn3)cc2)cc1
7.99 | 6.61 | 2.06 | 8.30 | CN1CCN(CC/N=C(\S)Nc2ccc(S(=O)(=O)NCc3ccc(S(N)(=O)=O)cc3)cc2)CC1

— ChEMBL document CHEMBL1144388, “Carbonic anhydrase inhibitors: synthesis and inhibition of cytosolic/tumor-associated carbonic anhydrase isozymes I, II, and IX with sulfonamides incorporating thioureido-sulfanilyl scaffolds” (Bioorg Med Chem Lett, 2005)
